Test results reported in patent publication US8859596B2, “Compounds as cannabinoid receptor ligands” (priority 2008, dated 2014).
Like-named read-outs stand apart in the source and are kept apart here.

What was measured:
rat CB2 = rat CB2 (Rattus norvegicus (Rat), UniProt Q9QZN9); assay: rat CB2 radioligand binding assay ([3H]CP 55,940 competition)
Description: (§1) The CB1 and CB2 radioligand binding assays described herein are utilized to ascertain the affinity of compounds of the present application for binding to CB2 relative to CB1 receptors.
HEK293 cells stably expressing rat CB2 receptors were grown until a confluent monolayer was formed. Briefly, the cells were harvested and homogenized in TE buffer (50 mM Tris-HCl, 1 mM MgCl2, and 1 mM EDTA) using a polytron for 2×10 second bursts in the presence of protease inhibitors, followed by centrifugation at 45,000×g for 20 minutes. The final membrane pellet was re-homogenized in storage buffer (50 mM Tris-HCl, 1 mM MgCl2, and 1 mM EDTA and 10% sucrose) and frozen at −78° C. until used. Saturation binding reactions were initiated by the addition of membrane preparation (protein concentration of 20 μg/well for rat CB2) into wells of a deep well plate containing [^3H]CP 55,940 (120 Ci/mmol, a nonselective CB agonist commercially available from Tocris) in assay buffer (50 mM Tris, 2.5 mM EDTA, 5 mM MgCl2, and 0.5 mg/mL fatty acid free BSA, pH 7.4). After 45 min incubation at 30° C., binding reaction was terminated by the addition of 300 μl/well of cold assay buffer followed by rapid vacuum filtration through a UniFilter-96 GF/C filter plates (pre-soaked in 1 mg/mL BSA for 2 hours). The bound activity was counted in a TopCount using Microscint-20. Saturation experiments were conducted with twelve concentrations of [^3H]CP 55,940 ranging from 0.01 to 8 nM. Competition experiments were conducted with 0.5 nM [^3H]CP 55,940 and five concentrations of displacing ligands selected from the range of 0.01 nM to […] addition of 10 μM unlabeled CP 55,940 (Tocris, Ellisville, Mo.) was used to assess nonspecific binding.

human CB2 receptors = human CB2 receptors (Homo sapiens (Human), UniProt P34972); assay: human CB2 radioligand binding assay ([3H]CP 55,940 competition)
Description: as §1
HEK293 cells stably expressing human CB2 receptors were grown until a confluent monolayer was formed. Briefly, the cells were harvested and homogenized in TE buffer (50 mM Tris-HCl, 1 mM MgCl2, and 1 mM EDTA) using a polytron for 2×10 second bursts in the presence of protease inhibitors, followed by centrifugation at 45,000×g for 20 minutes. The final membrane pellet was re-homogenized in storage buffer (50 mM Tris-HCl, 1 mM MgCl2, and 1 mM EDTA and 10% sucrose) and frozen at −78° C. until used. Saturation binding reactions were initiated by the addition of membrane preparation (protein concentration of 5 μg/well for human CB2) into wells of a deep well plate containing [^3H]CP 55,940 (120 Ci/mmol, a nonselective CB agonist commercially available from Tocris) in assay buffer (50 mM Tris, 2.5 mM EDTA, 5 mM MgCl2, and 0.5 mg/mL fatty acid free BSA, pH 7.4). After 90 min incubation at 30° C., binding reaction was terminated by the addition of 300 μL/well of cold assay buffer followed by rapid vacuum filtration through a UniFilter-96 GF/C filter plates (pre-soaked in 1 mg/mL BSA for 2 hours). The bound activity was counted in a TopCount using Microscint-20. Saturation experiments were conducted with twelve concentrations of [^3H]CP 55,940 ranging from 0.01 to 8 nM. Competition experiments were conducted with 0.5 nM [^3H]CP 55,940 and five concentrations (0.01 nM to 10 μM) of displacing ligands. The addition of 10 μM unlabeled CP 55,940 (Tocris, Ellisville, Mo.) was used to assess nonspecific binding.

[1] = HEK293 membranes, 0.5 nM [3H]CP 55,940, read-out: rat CB2 (Ki)
[2] = HEK293 membranes, 0.5 nM [3H]CP 55,940, read-out: human CB2 (Ki)

Chain of rat CB2 (Q9QZN9 whole entry): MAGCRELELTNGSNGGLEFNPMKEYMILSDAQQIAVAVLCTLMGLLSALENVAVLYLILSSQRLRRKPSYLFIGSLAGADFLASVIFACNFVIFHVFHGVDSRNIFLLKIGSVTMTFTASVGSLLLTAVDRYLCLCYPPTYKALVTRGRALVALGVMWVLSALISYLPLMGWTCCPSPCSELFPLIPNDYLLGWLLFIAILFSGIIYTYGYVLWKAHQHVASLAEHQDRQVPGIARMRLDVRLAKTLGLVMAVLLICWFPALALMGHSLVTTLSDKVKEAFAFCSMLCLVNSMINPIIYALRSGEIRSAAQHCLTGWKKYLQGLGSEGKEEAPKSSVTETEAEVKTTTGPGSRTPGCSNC
Chain of human CB2 receptors (P34972 whole entry): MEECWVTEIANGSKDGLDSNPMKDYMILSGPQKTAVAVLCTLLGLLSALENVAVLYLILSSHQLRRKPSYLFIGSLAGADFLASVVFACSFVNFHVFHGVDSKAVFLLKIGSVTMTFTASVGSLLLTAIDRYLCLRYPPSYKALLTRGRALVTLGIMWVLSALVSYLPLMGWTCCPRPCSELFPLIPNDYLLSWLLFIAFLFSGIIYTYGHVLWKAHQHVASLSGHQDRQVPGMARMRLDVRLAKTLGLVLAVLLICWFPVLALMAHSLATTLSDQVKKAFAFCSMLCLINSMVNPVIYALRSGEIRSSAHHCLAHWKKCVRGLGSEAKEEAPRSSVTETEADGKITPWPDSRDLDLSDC

Structure (SMILES)	Ki (rat CB2; [1])	Ki (human CB2 receptors; [2])	Ki (rat CB2)	Ki (human CB2 receptors)
CCCCn1nc(C(C)(C)C)s/c1=N\C(=O)c1cc(C(F)(F)F)ccc1ON=C(N)C(=O)OCC [Example 176, ethyl amino {[2-({[(2Z)-3-butyl-5-tert-butyl-1,3,4-thiadiazol-2(3H)-ylidene]amino}carbonyl)-4-(trifluoromethyl)phenoxy]imino}acetate]	1.7 nM	6.1 nM		
CCCCn1nc(C(C)(C)C)s/c1=N\C(=O)c1cc(C(F)(F)F)ccc1N(C)N(C)C(=O)OC(C)(C)C [Example 184]	35 nM	279 nM		
CCCCn1/c(=N/C(=O)c2cc(C(F)(F)F)ccc2NNC(=O)c2ccncc2)cc(C(C)(C)C)n1C [Example 200, N-[(3E)-2-butyl-5-tert-butyl-1-methyl-1,2-dihydro-3H-pyrazol-3-ylidene]-2-(2-isonicotinoylhydrazino)-5-(trifluoromethyl)benzamide]	1.3 nM	0.7 nM		
CCCCn1nc(C(C)(C)C)s/c1=N\C(=O)c1cc(Cl)ccc1ONC(C)(C)C [Example 162, 2-[(tert-butylamino)oxy]-N-[(2Z)-3-butyl-5-tert-butyl-1,3,4-thiadiazol-2(3H)-ylidene]-5-chlorobenzamide]	0.6 nM	8.5 nM		
Cn1c(C(C)(C)C)c/c(=N\C(=O)c2cc(C(F)(F)F)ccc2ONC(C)(C)C)n1CC1CCC1 [Example 155, 2-[(tert-butylamino)oxy]-N-[(3E)-5-tert-butyl-2-(cyclobutylmethyl)-1-methyl-1,2-dihydro-3H-pyrazol-3-ylidene]-5-(trifluoromethyl)benzamide]			14 nM	27 nM
CCCCn1nc(C(C)(C)C)s/c1=N\C(=O)c1cc(C(F)(F)F)ccc1NNc1ccccn1 [Example 183, N-[(2Z)-3-butyl-5-tert-butyl-1,3,4-thiadiazol-2(3H)-ylidene]-2-(2-pyridin-2-ylhydrazino)-5-(trifluoromethyl)benzamide]	5.6 nM	32 nM		
CCCCn1ccc(C(C)(C)C)c/c1=N\C(=O)c1cc(C(F)(F)F)ccc1ONC(C)(C)C [Example 157, 2-[(tert-butylamino)oxy]-N-[(2E)-1-butyl-4-tert-butylpyridin-2(1H)-ylidene]-5-(trifluoromethyl)benzamide]	9.4 nM	128 nM		
C/C(=N\Oc1ccc(C(F)(F)F)cc1C(=O)/N=c1\cc(C(C)(C)C)n(C)n1C[C@H]1CCCO1)C(F)(F)F [Example 178, N-{(3E)-5-tert-butyl-1-methyl-2-[(2R)-tetrahydrofuran-2-ylmethyl]-1,2-dihydro-3H-pyrazol-3-ylidene}-5-(trifluoromethyl)-2-({[(1E)-2,2,2-trifluoro-1-methylethylidene]amino}oxy)benzamide]	40 nM	> 1000 nM		
CCCCn1nc(C(C)(C)C)s/c1=N\C(=O)c1cc(C(F)(F)F)ccc1NNC(=O)c1cccnc1 [Example 197, N-[(2Z)-3-butyl-5-tert-butyl-1,3,4-thiadiazol-2(3H)-ylidene]-2-[2-(pyridin-3-ylcarbonyl)hydrazino]-5-(trifluoromethyl)benzamide]	0.7 nM	1.1 nM		
CCCCn1/c(=N/C(=O)c2cc(C(F)(F)F)ccc2ONC(C)(C)C)cc(C(C)(C)C)n1C [Example 149, 2-[(tert-butylamino)oxy]-N-[(3E)-2-butyl-5-tert-butyl-1-methyl-1,2-dihydro-3H-pyrazol-3-ylidene]-5-(trifluoromethyl)benzamide]			5.5 nM	77 nM
